Activity calls are given as the source filed them. The rule behind the calls is not given here.
Columns and labels:
[1] = Drug uptake in C57BL/6J mouse plasma at 10 mg/kg, po measured after 1 hr by LC-MS/MS analysis; assay type: ADME, organism-based
[2] = Lipophilicity, logD of compound at pH 7.4; assay type: physicochemical; settings: buffer
[3] = Bound fraction in human plasma
[4] = Drug uptake in C57BL/6J mouse brain at 10 mg/kg, po measured after 1 hr by LC-MS/MS analysis; assay type: ADME, organism-based; settings: read-out: Drug uptake
[5] = Genotoxicity against Salmonella typhimurium TA100 in absence of S9 metabolic activation at 125 ug/ml by Ames test; assay type: toxicity; settings: salmonella enterica subsp. enterica serovar typhimurium, dose 125 µg/ml
[6] = target: AMP-activated protein kinase (AMPK) alpha-1/beta-1/gamma-1 (Homo sapiens) (UniProt P54619+Q9Y478+Q13131); experiment: Activation of recombinant AMPK alpha1/beta1/gamma1 (unknown origin) at 10 uM relative to control; assay type: protein-complex assay; settings: filed as activator
Sequence of AMP-activated protein kinase (AMPK) alpha-1/beta-1/gamma-1 (Homo sapiens) (P54619 whole entry): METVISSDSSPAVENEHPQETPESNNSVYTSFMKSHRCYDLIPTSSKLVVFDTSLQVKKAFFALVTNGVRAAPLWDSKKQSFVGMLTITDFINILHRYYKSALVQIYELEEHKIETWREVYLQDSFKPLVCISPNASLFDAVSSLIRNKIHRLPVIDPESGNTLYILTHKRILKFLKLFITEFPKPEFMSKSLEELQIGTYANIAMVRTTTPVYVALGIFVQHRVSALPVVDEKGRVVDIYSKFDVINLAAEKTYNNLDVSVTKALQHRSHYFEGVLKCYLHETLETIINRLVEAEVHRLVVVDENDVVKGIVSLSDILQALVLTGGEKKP
Sequence of AMP-activated protein kinase (AMPK) alpha-1/beta-1/gamma-1 (Homo sapiens) (Q13131 whole entry partner): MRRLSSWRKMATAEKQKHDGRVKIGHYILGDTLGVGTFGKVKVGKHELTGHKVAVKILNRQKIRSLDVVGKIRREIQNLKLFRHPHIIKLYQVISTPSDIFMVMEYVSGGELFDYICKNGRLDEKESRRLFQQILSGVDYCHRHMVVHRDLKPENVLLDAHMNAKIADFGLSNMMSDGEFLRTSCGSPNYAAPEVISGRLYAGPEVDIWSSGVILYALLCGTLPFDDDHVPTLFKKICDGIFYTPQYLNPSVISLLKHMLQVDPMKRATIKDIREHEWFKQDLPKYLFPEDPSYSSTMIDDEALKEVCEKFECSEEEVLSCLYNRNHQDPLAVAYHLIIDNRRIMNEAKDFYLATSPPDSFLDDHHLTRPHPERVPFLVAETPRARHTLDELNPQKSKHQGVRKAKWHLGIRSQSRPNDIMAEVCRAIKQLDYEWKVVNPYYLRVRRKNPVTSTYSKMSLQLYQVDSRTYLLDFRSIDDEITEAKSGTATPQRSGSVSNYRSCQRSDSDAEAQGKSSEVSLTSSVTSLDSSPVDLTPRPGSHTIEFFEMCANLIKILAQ
Sequence of AMP-activated protein kinase (AMPK) alpha-1/beta-1/gamma-1 (Homo sapiens) (Q9Y478 2-270 partner limits assumed): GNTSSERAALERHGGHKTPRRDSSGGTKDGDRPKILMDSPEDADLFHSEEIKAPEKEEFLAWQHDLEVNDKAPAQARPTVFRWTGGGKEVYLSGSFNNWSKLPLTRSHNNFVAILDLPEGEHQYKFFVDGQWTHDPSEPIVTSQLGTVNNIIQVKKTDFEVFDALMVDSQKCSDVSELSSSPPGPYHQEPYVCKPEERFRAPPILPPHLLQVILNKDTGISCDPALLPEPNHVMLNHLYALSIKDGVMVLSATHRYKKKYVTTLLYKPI

[7] = Half life in mouse; assay type: ADME, organism-based; settings: in vivo
[8] = Drug uptake in C57BL/6J mouse liver at 10 mg/kg, po measured after 1 hr by LC-MS/MS analysis; assay type: ADME, organism-based; settings: read-out: Drug uptake
[9] = Toxicity in C57BL/6J mouse assessed as induction of anxiety by measuring increase in time spent in closed arms at 10 mg/kg, po measured after 28 days by elevated plus maze test; assay type: organism-based; settings: in vivo, 672 h, time 28 day
[10] = Toxicity in C57BL/6J mouse assessed as induction of anxiety by measuring reduction in time spent in open arms at 10 mg/kg, po measured after 28 days by elevated plus maze test; assay type: organism-based; settings: in vivo, 672 h, time 28 day
[11] = Genotoxicity against Salmonella typhimurium TA98 in presence of S9 metabolic activation at 125 ug/ml by Ames test; assay type: toxicity; settings: salmonella enterica subsp. enterica serovar typhimurium, dose 125 µg/ml
[12] = Half life in human; assay type: ADME
[13] = target: Cannabinoid receptor 2 (Homo sapiens, UniProt P34972); experiment: Displacement of [3H][…] from CB2 receptor (unknown origin) expressed in CHO-K1 cells by radioligand displacement analysis; assay type: cell-based
Sequence of Cannabinoid receptor 2 (P34972 whole entry): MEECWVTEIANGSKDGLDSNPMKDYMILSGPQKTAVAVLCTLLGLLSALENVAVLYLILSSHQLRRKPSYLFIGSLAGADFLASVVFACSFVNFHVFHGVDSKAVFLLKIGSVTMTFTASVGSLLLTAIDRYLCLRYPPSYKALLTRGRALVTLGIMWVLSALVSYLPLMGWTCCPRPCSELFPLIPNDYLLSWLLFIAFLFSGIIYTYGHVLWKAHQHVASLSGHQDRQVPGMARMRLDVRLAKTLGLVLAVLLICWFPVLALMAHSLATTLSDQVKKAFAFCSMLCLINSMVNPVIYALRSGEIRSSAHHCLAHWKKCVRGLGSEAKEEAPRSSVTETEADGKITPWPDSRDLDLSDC

[14] = Tmax in C57BL/6J mouse serum at 10 mg/kg, po by LC-MS/MS analysis; assay type: ADME, organism-based
[15] = test system: Mus musculus; experiment: Increase in fat oxidation in CB1-knock out mouse at 30 mg/kg, po measured for 24 hrs; assay type: functional, organism-based
[16] = Bound fraction in mouse plasma
[17] = test system: Mus musculus; experiment: Modulation of metabolic parameters in diet-induced obesity C57BL/6J mouse model assessed as reduction in body weight at 10 mg/kg, po for 1 week; assay type: functional, organism-based; settings: time 1.0 weeks
[18] = test system: Mus musculus; experiment: In vivo antagonist activity at CB1 receptor in C57BL/6J mouse assessed as inhibition of ACEA-induced reduction of upper GI motility at 3 to 10 mg/kg, po administered with CB1 agonist, ACEA and 30 mins later treated with compound and measured after 30 mins; assay type: functional, organism-based; settings: dose 3-10 mg/kg
[19] = Toxicity in C57BL/6J mouse assessed as induction of anxiety by measuring increase in time spent in closed arms at 10 mg/kg, po measured after 1 hr by elevated plus maze test; assay type: organism-based; settings: in vivo
[20] = Toxicity in C57BL/6J mouse assessed as induction of anxiety by measuring reduction in time spent in open arms at 10 mg/kg, po measured after 1 hr by elevated plus maze test; assay type: organism-based; settings: in vivo
[21] = target: T1, Cannabinoid receptor 1 (Mus musculus, UniProt P47746); experiment: Displacement of [3H][…] from CB1 receptor in mouse brain plasma membrane by radioligand displacement analysis; assay type: cell membranes
T1 sequence (P47746 whole entry): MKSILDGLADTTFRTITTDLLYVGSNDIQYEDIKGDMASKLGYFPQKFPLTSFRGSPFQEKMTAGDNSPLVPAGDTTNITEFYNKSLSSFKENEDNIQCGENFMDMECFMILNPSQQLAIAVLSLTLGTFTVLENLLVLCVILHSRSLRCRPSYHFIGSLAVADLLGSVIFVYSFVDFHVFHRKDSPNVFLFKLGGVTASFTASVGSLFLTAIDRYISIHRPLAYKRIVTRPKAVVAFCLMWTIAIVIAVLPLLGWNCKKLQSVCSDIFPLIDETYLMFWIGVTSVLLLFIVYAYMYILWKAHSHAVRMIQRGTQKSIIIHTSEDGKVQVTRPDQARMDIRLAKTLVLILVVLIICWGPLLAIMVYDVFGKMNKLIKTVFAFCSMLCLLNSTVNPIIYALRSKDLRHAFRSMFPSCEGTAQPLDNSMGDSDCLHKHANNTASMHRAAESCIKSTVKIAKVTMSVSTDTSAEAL

[22] = target: T1, Cannabinoid receptor 1; experiment: Antagonist activity at CB1 receptor in mouse brain membrane assessed as inhibition of […]-induced GTPgammaS binding by [35S]GTPgammaS binding analysis; assay type: functional, cell membranes
[23] = test system: Mus musculus; experiment: In vivo activation of AMPK in C57BL/6J mouse assessed as increase in AMPK phosphorylation at Thr172 residue in liver at 10 mg/kg, po measured after 2 to 4 hrs by western blot analysis; assay type: functional, organism-based; settings: time 2-4 hrs
[24] = test system: Mus musculus; experiment: Modulation of metabolic parameters in diet-induced obesity C57BL/6J mouse model assessed as improvement in glucose tolerance at 10 mg/kg, po for 1 week by glucose tolerance test; assay type: functional, organism-based; settings: time 1.0 weeks
[25] = Genotoxicity against Salmonella typhimurium TA100 in presence of S9 metabolic activation at 125 ug/ml by Ames test; assay type: toxicity; settings: salmonella enterica subsp. enterica serovar typhimurium, dose 125 µg/ml
[26] = Half life in C57BL/6J mouse serum at 10 mg/kg, po by LC-MS/MS analysis; assay type: ADME, organism-based
[27] = test system: Mus musculus; experiment: Modulation of metabolic parameters in diet-induced obesity C57BL/6J mouse model assessed as improvement in insulin sensitivity at 10 mg/kg, po for 1 week by insulin sensitivity test; assay type: functional, organism-based; settings: time 1.0 weeks
[28] = target: Voltage-gated inwardly rectifying potassium channel KCNH2 (Homo sapiens, UniProt Q12809); experiment: Inhibition of hERG; assay type: toxicity
Sequence of Voltage-gated inwardly rectifying potassium channel KCNH2 (Q12809 whole entry): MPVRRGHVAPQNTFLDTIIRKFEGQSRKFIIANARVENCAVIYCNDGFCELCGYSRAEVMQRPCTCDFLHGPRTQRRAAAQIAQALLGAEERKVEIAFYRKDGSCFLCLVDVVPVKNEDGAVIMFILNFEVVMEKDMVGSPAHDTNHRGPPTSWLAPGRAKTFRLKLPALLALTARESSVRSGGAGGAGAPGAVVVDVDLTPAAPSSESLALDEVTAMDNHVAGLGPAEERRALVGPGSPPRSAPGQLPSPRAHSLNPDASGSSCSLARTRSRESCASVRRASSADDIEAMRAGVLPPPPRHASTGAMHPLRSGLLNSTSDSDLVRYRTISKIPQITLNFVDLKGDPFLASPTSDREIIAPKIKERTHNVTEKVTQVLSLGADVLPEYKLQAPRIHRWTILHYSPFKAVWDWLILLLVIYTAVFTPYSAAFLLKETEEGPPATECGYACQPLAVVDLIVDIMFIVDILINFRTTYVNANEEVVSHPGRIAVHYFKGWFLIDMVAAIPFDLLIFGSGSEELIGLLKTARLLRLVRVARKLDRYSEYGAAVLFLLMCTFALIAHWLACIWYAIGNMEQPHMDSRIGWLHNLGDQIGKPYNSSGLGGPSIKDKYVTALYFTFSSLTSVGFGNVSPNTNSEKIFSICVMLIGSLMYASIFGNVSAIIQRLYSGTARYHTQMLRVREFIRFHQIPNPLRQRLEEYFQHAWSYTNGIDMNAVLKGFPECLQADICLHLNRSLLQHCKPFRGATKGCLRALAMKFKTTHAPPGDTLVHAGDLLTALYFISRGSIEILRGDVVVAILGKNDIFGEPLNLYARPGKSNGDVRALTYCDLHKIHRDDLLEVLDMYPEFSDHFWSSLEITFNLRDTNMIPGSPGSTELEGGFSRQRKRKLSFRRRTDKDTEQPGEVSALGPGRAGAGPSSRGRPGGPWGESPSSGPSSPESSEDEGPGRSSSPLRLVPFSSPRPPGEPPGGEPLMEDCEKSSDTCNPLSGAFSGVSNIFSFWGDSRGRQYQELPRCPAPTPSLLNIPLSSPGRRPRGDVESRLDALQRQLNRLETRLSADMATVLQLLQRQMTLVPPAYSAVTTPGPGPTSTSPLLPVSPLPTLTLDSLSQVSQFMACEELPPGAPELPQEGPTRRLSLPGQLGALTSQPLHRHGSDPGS

[29] = test system: Mus musculus; experiment: Modulation of metabolic parameters in diet-induced obesity C57BL/6J mouse model assessed as reduction in food intake at 10 mg/kg, po for 1 week; assay type: functional, organism-based; settings: time 1.0 weeks
[30] = Cmax in C57BL/6J mouse serum at 10 mg/kg, po by LC-MS/MS analysis; assay type: ADME, organism-based; design: dose 10 mg/kg, route po
[31] = Drug uptake in C57BL/6J mouse skeletal muscle at 1 mg/kg, po by LC-MS/MS analysis; assay type: ADME, organism-based, Skeletal muscle tissue; settings: in vivo, read-out: Drug uptake
[32] = Drug uptake in C57BL/6J mouse liver at 3 mg/kg, po by LC-MS/MS analysis; assay type: ADME, organism-based; settings: in vivo, read-out: Drug uptake

CC(=O)N/C(N)=N/C(=N/S(=O)(=O)c1ccc(Cl)cc1)N1C[C@H](c2ccccc2)C(c2ccc(Cl)cc2)=N1
concentration at 1 h [1]: 3100 ng/mL | logD [2]: 4.3 | fraction bound [3]: 0.999 | concentration at 1 h [4]: 140 ng/g | Activity [5]: Non-Toxic | Activity [6]: 134% | half-life [7]: 7.3 min | concentration at 1 h [8]: 46700 ng/g | Activity [9]: Non-Toxic | Activity [10]: Non-Toxic | Activity [11]: Non-Toxic | half-life [12]: 8.1 min | Ki [13]: 476 nM | Tmax [14]: 1 h | Activity [15]: Active | fraction bound [16]: 1 | Activity [17]: Active | Activity [18]: Dose-Dependent Effect | Activity [19]: Non-Toxic | Activity [20]: Non-Toxic | Ki [21]: 0.81 nM | IC50 [22]: 3.9 nM | Activity [23]: Active | Activity [24]: Active | Activity [25]: Non-Toxic | half-life [26]: ~180 min | Activity [27]: Active | IC50 [28]: > 100 µM | Activity [29]: Active | Cmax [30]: 4 µM

CC(=O)N/C(N)=N/C(=N\S(=O)(=O)c1ccc(C(F)(F)F)cc1)N1C[C@H](c2ccccc2)C(c2ccc(Cl)cc2)=N1
concentration [31]: 500 nM | concentration [32]: 14 µM
